Assays:
[1] = Influence on growth, study on white free-range chickens; assay type: in vivo
Protocol: This test is conducted under the same conditions by administering 2 kg of the composition of the invention per tonne to four batches of chickens.

[2] = Influence on growth of chickens, open-label study versus monensin; assay type: in vivo; conditions: for Mean daily weight gain: composition at 1.5 kg per tonne
Protocol: The parameters considered are the performance index and the mean daily weight gain. The composition of the invention is administered at the rate of 1.5 kg per tonne.

## CC[C@@]1([C@@H]2O[C@@H]([C@H]3O[C@@](O)(CO)[C@H](C)C[C@@H]3C)C[C@@H]2C)CC[C@H]([C@]2(C)CC[C@]3(C[C@H](O)[C@@H](C)[C@@H]([C@@H](C)[C@@H](OC)[C@H](C)C(=O)O)O3)O2)O1 [Control, monensin]
[1]; General Mean
  Feed conversion index (quantity of feed for obtaining 1 kg of chicken): 2.979
  Mean weight: 2.116 kg
[1]; General Mean, composition at 2 kg per tonne
  Mean daily weight gain: 25.46 g
[1]; Mean of the 1st third
  Feed conversion index (quantity of feed for obtaining 1 kg of chicken): 2.810
  Mean daily weight gain: 26.30 g
  Mean weight: 2.265 kg
[1]; Mean of the 2nd third
  Feed conversion index (quantity of feed for obtaining 1 kg of chicken): 2.960
  Mean daily weight gain: 25.48 g
  Mean weight: 2.131 kg
[1]; Mean of the 3rd third
  Feed conversion index (quantity of feed for obtaining 1 kg of chicken): 3.167
  Mean daily weight gain: 24.64 g
  Mean weight: 2.054 kg
[2]; Table VI batch
  Mean weight: 2.083 kg
  Performance index: 87
  Mean daily weight gain: 25.32 g
[2]; Table VII batch
  Mean weight: 2.169 kg
  Performance index: 95
  Mean daily weight gain: 26.46 g
